Experimental data taken from patent US20250230193A1, “CYCLIC COMPOUND HAVING SELECTIVE KRAS INHIBITORY EFFECT ON HRAS AND NRAS” (CHUGAI SEIYAKU KABUSHIKI KAISHA, priority 2022, published 2025).

What was measured:
[1] = biological target: GDP-bound NRAS wild-type protein (Homo sapiens, UniProt P01111); test: Binding to NRAS by surface plasmon resonance (SPR), Single Cycle Kinetics; conditions: SPR, GDP-bound NRAS wild-type vs GDP-bound KRAS wild-type
[2] = biological target: GDP-bound HRAS wild-type protein (Homo sapiens, UniProt P01112); test: Binding to HRAS by surface plasmon resonance (SPR), Single Cycle Kinetics; conditions: SPR, GDP-bound HRAS wild-type vs GDP-bound KRAS wild-type
GDP-bound HRAS wild-type protein, sequence (P01112 whole entry): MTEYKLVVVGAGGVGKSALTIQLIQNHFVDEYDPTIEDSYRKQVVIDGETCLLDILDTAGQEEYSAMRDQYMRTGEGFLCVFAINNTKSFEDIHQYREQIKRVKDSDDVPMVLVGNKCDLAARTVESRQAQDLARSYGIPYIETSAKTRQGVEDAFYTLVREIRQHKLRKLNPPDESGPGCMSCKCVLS

GDP-bound NRAS wild-type protein, sequence (P01111 whole entry): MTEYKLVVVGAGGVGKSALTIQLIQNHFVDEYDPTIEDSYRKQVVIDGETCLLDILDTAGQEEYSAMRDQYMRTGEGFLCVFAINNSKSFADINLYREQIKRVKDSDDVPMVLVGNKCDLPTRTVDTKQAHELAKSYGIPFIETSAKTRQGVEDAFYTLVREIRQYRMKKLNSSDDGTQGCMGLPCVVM

SMILES	NRAS/KRAS (ratio of KD value with respect to NRAS to KD value with respect to KRAS) [1]	HRAS/KRAS (ratio of KD value with respect to HRAS to KD value with respect to KRAS) [2]
CCCOC[C@H]1C(=O)N[C@@H]([C@@H](C)CC)C(=O)N(C)CC(=O)N(C)[C@H]2C/C=C\CCN(C2=O)[C@@H](CC2CCC(F)(F)CC2)C(=O)N(C)CC(=O)N[C@@H](CCc2ccc(C(F)(F)F)c(OC)c2)C(=O)N2C[C@@H](C)C[C@H]2C(=O)N(C)C2(CCC2)C(=O)N(C)[C@@H](C2CCCC2)C(=O)N(C)[C@H](C(=O)N(C)C)CC(=O)N1C [PP2377]	A (a compound having 10 or more and less than 20 is denoted as A)	A (a compound having 10 or more and less than 20 is denoted as A)
CCC[C@H]1C(=O)N[C@@H]([C@@H](C)CC)C(=O)N(C2CC2)CC(=O)N(C)[C@H]2C/C=C\CCN(C2=O)[C@@H](CC2CCC(F)(F)CC2)C(=O)N(C)CC(=O)N[C@@H](CCc2ccc(C(F)(F)F)c(OC)c2)C(=O)N2C[C@@H](C)C[C@H]2C(=O)N(C)C2(CCC2)C(=O)N(C)[C@@H](C2CCCC2)C(=O)N(C)[C@H](C(=O)N(C)C)CC(=O)N1C [PP2378]	B (a compound having 3 or more and less than 10 is denoted as B)	A (a compound having 10 or more and less than 20 is denoted as A)
CCCOC[C@H]1C(=O)N[C@@H]([C@@H](C)CC)C(=O)N(C2CC2)CC(=O)N(C)[C@H]2C/C=C\CCN(C2=O)[C@@H](CC2CCC(F)(F)CC2)C(=O)N(C)CC(=O)N[C@@H](CCc2ccc(C(F)(F)F)c(OC)c2)C(=O)N2C[C@@H](C)C[C@H]2C(=O)N(C)C2(CCC2)C(=O)N(C)[C@@H](C2CCCC2)C(=O)N(C)[C@H](C(=O)N(C)C)CC(=O)N1C [PP2379]	A (a compound having 10 or more and less than 20 is denoted as A)	A (a compound having 10 or more and less than 20 is denoted as A)
CCC[C@H]1C(=O)N[C@@H]([C@@H](C)CC)C(=O)N2CCC[C@H]2C(=O)N(C)[C@H]2C/C=C\CCN(C2=O)[C@@H](CC2CCC(F)(F)CC2)C(=O)N(C)CC(=O)N[C@@H](CCc2ccc(C(F)(F)F)c(OC)c2)C(=O)N2C[C@@H](C)C[C@H]2C(=O)N(C)C2(CCC2)C(=O)N(C)[C@@H](C2CCCC2)C(=O)N(C)[C@H](C(=O)N(C)C)CC(=O)N1C [PP2380]	A (a compound having 10 or more and less than 20 is denoted as A)	A (a compound having 10 or more and less than 20 is denoted as A)
CCCOC[C@H]1C(=O)N[C@@H]([C@@H](C)CC)C(=O)N2CCC[C@H]2C(=O)N(C)[C@H]2C/C=C\CCN(C2=O)[C@@H](CC2CCC(F)(F)CC2)C(=O)N(C)CC(=O)N[C@@H](CCc2ccc(C(F)(F)F)c(OC)c2)C(=O)N2C[C@@H](C)C[C@H]2C(=O)N(C)C2(CCC2)C(=O)N(C)[C@@H](C2CCCC2)C(=O)N(C)[C@H](C(=O)N(C)C)CC(=O)N1C [PP2381]	A (a compound having 10 or more and less than 20 is denoted as A)	A (a compound having 10 or more and less than 20 is denoted as A)
CCC[C@H]1C(=O)N[C@@H]([C@@H](C)CC)C(=O)N(C)CC(=O)N(C)[C@H]2C/C=C\CCN(C2=O)[C@@H](Cc2ccc(C(F)(F)F)cc2)C(=O)N(C)CC(=O)N[C@@H](CCc2ccc(C(F)(F)F)c(OC)c2)C(=O)N2C[C@H](OCC)C[C@H]2C(=O)N(C)C2(CCC2)C(=O)N(C)[C@@H](C(CC)CC)C(=O)N(C)[C@H](C(=O)N(C)C)CC(=O)N1C [PP2382]	A (a compound having 10 or more and less than 20 is denoted as A)	A (a compound having 10 or more and less than 20 is denoted as A)
CCOC[C@H]1C(=O)N[C@@H]([C@@H](C)CC)C(=O)N(C)CC(=O)N(C)[C@H]2C/C=C\CCN(C2=O)[C@@H](Cc2ccc(C(F)(F)F)cc2)C(=O)N(C)CC(=O)N[C@@H](CCc2ccc(C(F)(F)F)c(OC)c2)C(=O)N2C[C@H](OCC)C[C@H]2C(=O)N(C)C2(CCC2)C(=O)N(C)[C@@H](C(CC)CC)C(=O)N(C)[C@H](C(=O)N(C)C)CC(=O)N1C [PP2383]	A (a compound having 10 or more and less than 20 is denoted as A)	A (a compound having 10 or more and less than 20 is denoted as A)
CC[C@H](C)[C@@H]1NC(=O)[C@H](COC)N(C)C(=O)C[C@@H](C(=O)N(C)C)N(C)C(=O)[C@H](C2CCCC2)N(C)C(=O)C2(CC(C)(C)C2)NC(=O)[C@@H]2C[C@H](C)CN2C(=O)[C@H](CCc2ccc(C(F)(F)F)c(OC)c2)NC(=O)CN(C)C(=O)[C@H](Cc2ccc(C)cc2)N2CC/C=C\C[C@@H](C2=O)N(C)C(=O)CN(C)C1=O [PP2385]	A (a compound having 10 or more and less than 20 is denoted as A)	B (a compound having 3 or more and less than 10 is denoted as B)
CC[C@H](C)[C@@H]1NC(=O)[C@H](COC)N(C)C(=O)C[C@@H](C(=O)N(C)C)N(C)C(=O)[C@H](C2CCCC2)N(C)C(=O)C2(CC(C)(C)C2)NC(=O)[C@@H]2C[C@H](C)CN2C(=O)[C@H](CCc2ccc(C(F)(F)F)c(OC)c2)NC(=O)CN(C)C(=O)[C@H](Cc2ccc(C)cc2)N2CC/C=C\C[C@@H](C2=O)N(C)C(=O)[C@@H]2C[C@H](C)CN2C1=O [PP2386]	A (a compound having 10 or more and less than 20 is denoted as A)	B (a compound having 3 or more and less than 10 is denoted as B)
CC[C@H](C)[C@@H]1NC(=O)[C@H](COC)N(C)C(=O)C[C@@H](C(=O)N(C)C)N(C)C(=O)[C@H](C2CCCC2)N(C)C(=O)C2(CC(C)(C)C2)NC(=O)[C@@H]2C[C@@H](C)CN2C(=O)[C@H](CCc2ccc(C(F)(F)F)c(OC)c2)NC(=O)CN(C)C(=O)[C@H](Cc2ccc(C)cc2)N2CC/C=C\C[C@@H](C2=O)N(C)C(=O)CN(C)C1=O [PP2387]	A (a compound having 10 or more and less than 20 is denoted as A)	A (a compound having 10 or more and less than 20 is denoted as A)
CCC[C@H]1C(=O)N[C@@H]([C@@H](C)CC)C(=O)N2C[C@@H](OC)C[C@H]2C(=O)N(C)[C@H]2C/C=C\CCN(C2=O)[C@@H](Cc2ccc(C)cc2)C(=O)N(C)CC(=O)N[C@@H](CCc2ccc(C(F)(F)F)c(OC)c2)C(=O)N2C[C@@H](C)C[C@H]2C(=O)NC2(CC(C)(C)C2)C(=O)N(C)[C@@H](C2CCCC2)C(=O)N(C)[C@H](C(=O)N(C)C)CC(=O)N1C [PP2388]	A (a compound having 10 or more and less than 20 is denoted as A)	B (a compound having 3 or more and less than 10 is denoted as B)
CCO[C@@H]1C[C@H]2C(=O)NC3(CC(C)(C)C3)C(=O)N(C)[C@@H](C3CCCC3)C(=O)N(C)[C@H](C(=O)N(C)C)CC(=O)N(C)[C@@H](COC)C(=O)N[C@@H]([C@@H](C)CC)C(=O)N(C)CC(=O)N(C)[C@H]3C/C=C\CCN(C3=O)[C@@H](Cc3ccc(C)cc3)C(=O)N(C)CC(=O)N[C@@H](CCc3ccc(C(F)(F)F)c(Cl)c3)C(=O)N2C1 [PP2389]	A (a compound having 10 or more and less than 20 is denoted as A)	B (a compound having 3 or more and less than 10 is denoted as B)
CC[C@H](C)[C@@H]1NC(=O)[C@H](COC)N(C)C(=O)C[C@@H](C(=O)N(C)C)N(C)C(=O)[C@H](C2CCCC2)N(C)C(=O)C2(CC(C)(C)C2)NC(=O)[C@@H]2C[C@H](C)CN2C(=O)[C@H](CCc2ccc(C(F)(F)F)c(OC)c2)NC(=O)CN(C)C(=O)[C@H](Cc2ccc(C)cc2)N2CC/C=C\C[C@@H](C2=O)N(C)C(=O)[C@@H]2C[C@H](OC)CN2C1=O [PP2390]	A (a compound having 10 or more and less than 20 is denoted as A)	B (a compound having 3 or more and less than 10 is denoted as B)
CCO[C@@H]1C[C@H]2C(=O)NC3(CC(C)(C)C3)C(=O)N(C)[C@@H](C3CCCC3)C(=O)N(C)[C@H](C(=O)N(C)C)CC(=O)N(C)[C@@H](COC)C(=O)N[C@@H]([C@@H](C)CC)C(=O)N(C)CC(=O)N(C)[C@H]3C/C=C\CCN(C3=O)[C@@H](Cc3ccc(C)cc3)C(=O)N(C)CC(=O)N[C@@H](CCc3cc(F)c(C(F)(F)F)c(F)c3)C(=O)N2C1 [PP2391]	A (a compound having 10 or more and less than 20 is denoted as A)	A (a compound having 10 or more and less than 20 is denoted as A)
CCO[C@@H]1C[C@H]2C(=O)NC3(CC(C)(C)C3)C(=O)N(C)[C@@H](C3CCCC3)C(=O)N(C)[C@H](C(=O)N(C)CC)CC(=O)N(C)[C@@H](COC)C(=O)N[C@@H]([C@@H](C)CC)C(=O)N(C)CC(=O)N(C)[C@H]3C/C=C\CCN(C3=O)[C@@H](Cc3ccc(C)cc3)C(=O)N(C)CC(=O)N[C@@H](CCc3ccc(C(F)(F)F)c(OC)c3)C(=O)N2C1 [PP2392]	A (a compound having 10 or more and less than 20 is denoted as A)	A (a compound having 10 or more and less than 20 is denoted as A)
CCOC[C@H]1C(=O)N[C@@H]([C@@H](C)CC)C(=O)N(C)CC(=O)N(C)[C@H]2C/C=C\CCN(C2=O)[C@@H](Cc2ccc(C)cc2)C(=O)N(C)CC(=O)N[C@@H](CCc2ccc(C(F)(F)F)c(OC)c2)C(=O)N2C[C@H](C)C[C@H]2C(=O)NC2(CC(C)(C)C2)C(=O)N(C)[C@@H](C2CCCC2)C(=O)N(C)[C@H](C(=O)N(C)C)CC(=O)N1C [PP2393]	A (a compound having 10 or more and less than 20 is denoted as A)	A (a compound having 10 or more and less than 20 is denoted as A)
